Results as given in publication PMC10743086, “Immunofluorescence-Based Assay for High-Throughput Analysis of Multidrug Resistance Markers in Non-Small Cell Lung Carcinoma Patient-Derived Cells” (Diagnostics, 2023).

Columns and labels:
Format in all cases: cell-based, human
[1] = test system: ABCB1 expression in NCI-H460 cells; test: Immunofluorescence assay of MDR marker ABCB1 expression; details: five concentrations, 24 h
Procedure: (§1) Vinorelbine and pemetrexed were purchased from Selleckchem (Houston, TX, USA). Carboplatin, cisplatin, docetaxel, etoposide, gemcitabine, gefitinib, and paclitaxel were purchased from Sigma-Aldrich Chemie GmbH (Taufkirchen, Germany). The cisplatin, carboplatin, and gemcitabine were dissolved in sterile water, while the etoposide, docetaxel, vinorelbine, paclitaxel, gefitinib, and pemetrexed were dissolved in DMSO and stored at −20 °C. Before treatment, all the stock solutions were freshly diluted in sterile water.
(§2) The compounds were administered 48 h after seeding. The treatment lasted 24 h.
(§3) The immunofluorescence assay for the quantification of MDR markers was optimized to distinguish cancer cells from stromal cells using a cytokeratin 8/18 (CK8/18) antibody cocktail. The cells were fixed with 4% paraformaldehyde for 20 min at RT and washed three times with PBS using the Wellwash Versa microplate washer (Thermo Fisher Scientific, Waltham, MA, USA). The cells were then blocked with 2% bovine serum albumin (BSA) in PBS for 1 h at RT. […] Co-immunostaining with antibodies against MDR markers was performed to detect the presence of ABCB1, ABCC1, and ABCG2 in both the cancer and stromal cells. […] The secondary antibodies were incubated with the cells at RT for 2 h in the dark. […] Finally, the cells were washed three times with PBS and stored at 4 °C in the dark before imaging.
(§4) The fluorescently labeled cells were imaged using the ImageXpress Pico Automated Cell Imaging System (Molecular Devices, San Jose, CA, USA) with a 4x objective after determining the appropriate exposure time for each illumination filter. Analysis of the obtained images was performed using CellReporterXpress software v. 2.8.2.669 (Molecular Devices). The cytotoxicity of the compounds was determined using the Cell Scoring Analysis Protocol. […] Expression of MDR markers was determined using the Multi-Wavelength Cell Scoring Analysis Protocol.

[2] = test system: ABCB1 expression in MRC-5 cells; test: as above; details: five concentrations, 24 h
Procedure: as §1, §2, §3, §4

[3] = test system: ABCB1 expression in NCI-H460/R cells; test: as above; details: five concentrations, 24 h
Procedure: as §1, §2, §3, §4

[4] = test system: ABCG2 expression in cancer cells (CK8/18+); test: Immunofluorescence assay of ABCG2 expression in patient-derived NSCLC cultures; details: 7 days
Procedure: (§5) Tissue samples were collected during surgery, and the NSCLC diagnosis, histological grade, stage, necrosis, and lymph node invasion status were determined by histopathological analysis. […] The surgical specimens were placed in a sterile tube containing antibiotic-antimycotic solution (Sigma-Aldrich Chemie GmbH, Taufkirchen, Germany) and immediately transported to the research laboratory for further processing.
(§6) Upon arrival, the tissue was manually chopped with a surgical blade in a Petri dish under sterile conditions. The samples were cut into 3–5 mm pieces and further dissociated using the Tumor Dissociation Kit (Miltenyi Biotec, Bergisch Gladbach, Germany). The Tumor Dissociation Kit was used to dissociate the cells from the tumor tissue according to the manufacturer’s instructions. The samples were incubated in a 37 °C orbital shaker (KS 4000 ic control, IKA, Königswinter, Germany) at 300 rpm for 90 min. After incubation, the dissociated tissue was placed in DMEM/Ham’s F12 (1:3 ratio) growth medium supplemented with 5% fetal bovine serum (Corning, NY, USA), antibiotic-antimycotic solution, 4 µg/mL hydrocortisone (Sigma-Aldrich Chemie GmbH, Taufkirchen, Germany), 1 µg/mL insulin (Sigma-Aldrich Chemie GmbH, Taufkirchen, Germany), 10 ng/mL epidermal growth factor (BioLegend, San Diego, CA, USA), and 24 µg/mL adenine (Sigma-Aldrich Chemie GmbH, Taufkirchen, Germany). The DMEM and Ham’s F12 growth media were purchased from Sigma-Aldrich Chemie GmbH (Taufkirchen, Germany).
(§7) The dissociated tissue was cultured in T-25 cell culture flasks until cell attachment was observed before the medium was replaced. If no cell attachment was achieved within 7 days, the sample was discarded. Successful patient-derived cultures were maintained at 37 °C in a humidified atmosphere with 5% CO2 and grown to confluence before undergoing further experiments. […] Partial trypsinization was performed by detaching the fibroblast-like cells with 1 mL of 0.05% trypsin for 1 min at 37 °C, followed by 2 min at room temperature (RT).
as §1
(§8) The primary cells were seeded in black, clear bottom 384-well cell culture microplates (Thermo Fisher Scientific, Waltham, MA, USA) in 50 µL of cell growth medium at a density of 1000 cells per well. The compounds were administered 72 h after seeding. The treatment lasted 7 days.
as §3

NCI-H460/R cells = test: Cytotoxicity by immunofluorescence cell scoring (cell counts), multidrug-resistant NSCLC cell line; details: Homo sapiens, 24 h treatment
Text: Human non-small cell lung carcinoma cells (NCI-H460) were purchased from the American Type Culture Collection (Rockville, MD, USA), and normal embryonic lung fibroblasts (MRC-5) were purchased from the European Collection of Authenticated Cell Cultures (Salisbury, UK). Multidrug-resistant NCI-H460/R cells overexpressing ABCB1 were selected from the NCI-H460 cells after selective pressure with doxorubicin [21]. All the cell lines were maintained in MEM medium (Sigma-Aldrich Chemie GmbH, Taufkirchen, Germany) supplemented with 10% FBS, 2 mM L-glutamine, and antibiotic-antimycotic solution. All the cell lines were maintained at 37 °C in a humidified atmosphere with 5% CO2.
as §1, §2, §3, §4

NCI-H460 cells = test: Cytotoxicity by immunofluorescence cell scoring (cell counts), NSCLC cell line; details: Homo sapiens, NCI-H460, 24 h, 24 h treatment
Procedure: as §1, §2, §3, §4

[5] = test system: ABCC1 expression in cancer cells (CK8/18+); test: Immunofluorescence assay of ABCC1 expression in patient-derived NSCLC cultures; details: 7 days
Procedure: as §5, §6, §7, §1, §8, §3

MRC-5 cells = test: Cytotoxicity by immunofluorescence cell scoring (cell counts), normal fibroblasts; details: Homo sapiens, 24 h treatment
Procedure: as §1, §2, §3, §4

[6] = test system: Cancer cells (CK8/18+) of patient-derived NSCLC cultures; test: Cytotoxicity in patient-derived NSCLC cultures, cancer cells; details: Homo sapiens, 168 h, 7 days treatment
Procedure: as §5, §6, §7, §1, §8, §3

[7] = NCI-H460 (co-culture with MRC-5)
[8] = MRC-5 (co-culture with NCI-H460)
[9] = MRC-5 (co-culture with NCI-H460/R)
[10] = NCI-H460/R (co-culture with MRC-5)
[11] = culture TR58, cancer cells (CK8/18+)
[12] = culture TR64, cancer cells (CK8/18+)
[13] = culture TR65, cancer cells (CK8/18+)
[14] = culture TR84, cancer cells (CK8/18+)
[15] = culture TR87, cancer cells (CK8/18+)
[16] = MRC5, 24 h, MRC-5 (co-culture with NCI-H460)

SMILES: CC(=O)O[C@@]12CO[C@@H]1C[C@H](O)[C@@]1(C)C(=O)[C@H](O)C3=C(C)[C@@H](OC(=O)[C@H](O)[C@@H](NC(=O)OC(C)(C)C)c4ccccc4)C[C@@](O)([C@@H](OC(=O)c4ccccc4)[C@H]21)C3(C)C [Docetaxel, docetaxel]
- ABCB1 Expression [1, 7]: increase (An increase in ABCB1 expression of at least 20% at a minimum of one concentration is shown in the table.)
- ABCB1 Expression ([1]; NCI-H460 monoculture): increase (An increase in ABCB1 expression of at least 20% at a minimum of one concentration is shown in the table.)
- ABCB1 Expression [2, 8]: no change
- ABCB1 Expression [2, 9]: no change
- ABCB1 Expression ([2]; MRC-5 monoculture): no change
- ABCB1 Expression [3, 10]: no change
- ABCB1 Expression ([3]; NCI-H460/R monoculture): no change
- ABCG2 expression [4, 11]: increase (An increase in ABCB1, ABCC1, or ABCG2 expression of at least 20% at a minimum of one concentration is shown in the table.)
- ABCG2 expression [4, 12]: increase (An increase in ABCB1, ABCC1, or ABCG2 expression of at least 20% at a minimum of one concentration is shown in the table.)
- ABCG2 expression [4, 13]: no change
- ABCG2 expression [4, 14]: increase (An increase in ABCB1, ABCC1, or ABCG2 expression of at least 20% at a minimum of one concentration is shown in the table.)
- ABCG2 expression [4, 15]: increase (An increase in ABCB1, ABCC1, or ABCG2 expression of at least 20% at a minimum of one concentration is shown in the table.)
- IC50 (NCI-H460/R cells; [10]): 0.801 µM
- IC50 (NCI-H460/R cells; NCI-H460/R monoculture): 0.704 µM
- IC50 (NCI-H460 cells; [7]): 0.642 µM
- IC50 (NCI-H460 cells; NCI-H460 monoculture): 0.554 µM
- ABCC1 expression [5, 11]: no change
- ABCC1 expression [5, 12]: increase (An increase in ABCB1, ABCC1, or ABCG2 expression of at least 20% at a minimum of one concentration is shown in the table.)
- ABCC1 expression [5, 13]: increase (An increase in ABCB1, ABCC1, or ABCG2 expression of at least 20% at a minimum of one concentration is shown in the table.)
- ABCC1 expression [5, 14]: increase (An increase in ABCB1, ABCC1, or ABCG2 expression of at least 20% at a minimum of one concentration is shown in the table.)
- ABCC1 expression [5, 15]: increase (An increase in ABCB1, ABCC1, or ABCG2 expression of at least 20% at a minimum of one concentration is shown in the table.)
- IC50 (MRC-5 cells; [16]): > 5 µM
- IC50 (MRC-5 cells; MRC5, 24 h, MRC-5 monoculture): > 5 µM
- IC50 (MRC-5 cells; MRC5, MRC-5 (co-culture with NCI-H460/R)): > 5 µM
- IC50 [6, 11]: 1.31 µM
- IC50 [6, 12]: 1.56 µM
- IC50 [6, 13]: > 5 µM
- IC50 [6, 14]: 1.85 µM
- IC50 [6, 15]: > 5 µM

SMILES: COc1cc([C@@H]2c3cc4c(cc3[C@@H](O[C@@H]3O[C@@H]5CO[C@@H](C)O[C@H]5[C@H](O)[C@H]3O)[C@H]3COC(=O)[C@H]23)OCO4)cc(OC)c1O [Etoposide, etoposide]
- ABCB1 Expression [1, 7]: increase (An increase in ABCB1 expression of at least 20% at a minimum of one concentration is shown in the table.)
- ABCB1 Expression ([1]; NCI-H460 monoculture): increase (An increase in ABCB1 expression of at least 20% at a minimum of one concentration is shown in the table.)
- ABCB1 Expression [2, 8]: no change
- ABCB1 Expression [2, 9]: no change
- ABCB1 Expression ([2]; MRC-5 monoculture): no change
- ABCB1 Expression [3, 10]: no change
- ABCB1 Expression ([3]; NCI-H460/R monoculture): no change
- ABCG2 expression [4, 11]: no change
- ABCG2 expression [4, 12]: increase (An increase in ABCB1, ABCC1, or ABCG2 expression of at least 20% at a minimum of one concentration is shown in the table.)
- ABCG2 expression [4, 13]: increase (An increase in ABCB1, ABCC1, or ABCG2 expression of at least 20% at a minimum of one concentration is shown in the table.)
- ABCG2 expression [4, 14]: increase (An increase in ABCB1, ABCC1, or ABCG2 expression of at least 20% at a minimum of one concentration is shown in the table.)
- ABCG2 expression [4, 15]: increase (An increase in ABCB1, ABCC1, or ABCG2 expression of at least 20% at a minimum of one concentration is shown in the table.)
- IC50 (NCI-H460/R cells; [10]): 7.5 µM
- IC50 (NCI-H460/R cells; NCI-H460/R monoculture): 7.92 µM
- IC50 (NCI-H460 cells; [7]): 6.07 µM
- IC50 (NCI-H460 cells; NCI-H460 monoculture): 4.81 µM
- ABCC1 expression [5, 11]: no change
- ABCC1 expression [5, 12]: increase (An increase in ABCB1, ABCC1, or ABCG2 expression of at least 20% at a minimum of one concentration is shown in the table.)
- ABCC1 expression [5, 13]: increase (An increase in ABCB1, ABCC1, or ABCG2 expression of at least 20% at a minimum of one concentration is shown in the table.)
- ABCC1 expression [5, 14]: increase (An increase in ABCB1, ABCC1, or ABCG2 expression of at least 20% at a minimum of one concentration is shown in the table.)
- ABCC1 expression [5, 15]: increase (An increase in ABCB1, ABCC1, or ABCG2 expression of at least 20% at a minimum of one concentration is shown in the table.)
- IC50 (MRC-5 cells; [16]): > 30 µM
- IC50 (MRC-5 cells; MRC5, 24 h, MRC-5 (co-culture with NCI-H460/R)): > 30 µM
- IC50 (MRC-5 cells; MRC5, 24 h, MRC-5 monoculture): > 30 µM
- IC50 [6, 11]: 7.13 µM
- IC50 [6, 12]: 11.9 µM
- IC50 [6, 13]: 25.4 µM
- IC50 [6, 14]: 2.98 µM
- IC50 [6, 15]: 13 µM
